Target: T1, IRAK4 (Homo sapiens, UniProt Q9NWZ3)
T1 sequence (Q9NWZ3 1-460): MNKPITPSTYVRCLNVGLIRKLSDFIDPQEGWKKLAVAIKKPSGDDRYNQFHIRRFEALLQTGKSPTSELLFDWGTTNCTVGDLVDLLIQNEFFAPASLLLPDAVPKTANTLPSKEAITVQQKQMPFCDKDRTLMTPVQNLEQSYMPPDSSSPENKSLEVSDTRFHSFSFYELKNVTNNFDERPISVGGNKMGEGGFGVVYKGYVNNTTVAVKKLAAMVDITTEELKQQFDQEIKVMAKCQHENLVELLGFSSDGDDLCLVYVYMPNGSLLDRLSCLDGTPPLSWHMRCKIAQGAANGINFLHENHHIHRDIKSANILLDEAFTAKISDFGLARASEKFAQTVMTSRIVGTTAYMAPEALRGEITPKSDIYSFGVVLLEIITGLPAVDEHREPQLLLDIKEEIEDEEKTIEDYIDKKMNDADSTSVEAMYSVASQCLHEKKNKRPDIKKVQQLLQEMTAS
Test: IRAK4 Inhibition Assay
Assay type: biochemical
Conditions: ATP 500 μM; FL-IPTSPITTTYFFFKKK peptide 1.5 μM; IRAK4 0.6 nM; 60 min room temperature; Caliper LabChip 3000
Protocol: The assays were performed in U-bottom 384-well plates. The final assay volume was 30 μL prepared from 15 μL additions of enzyme and substrates (fluoresceinated peptide and ATP) and test compounds in assay buffer (20 mM HEPES pH 7.2, 10 mM MgCl2, 0.015% Brij35 and 4 mM DTT). The reaction was initiated by the combination of IRAK4 with substrates and test compounds. The reaction was incubated at room temperature for 60 min. and terminated by adding 45 μL of 35 mM EDTA to each sample. The reaction mixture was analyzed on the Caliper LabChip 3000 (Caliper, Hopkinton, Mass.) by electrophoretic separation of the fluorescent substrate and phosphorylated product. Inhibition data were calculated by comparison to no enzyme control reactions for 100% inhibition and vehicle-only reactions for 0% inhibition. The final concentrations of reagents in the assays are ATP, 500 μM; FL-IPTSPITTTYFFFKKK peptide 1.5 μM; IRAK4, 0.6 nM; and DMSO, 1.6%.

Row | IC50 [nM] | Compound
1 | 564 | CC(C)Nc1cc(Nc2ccc3ncsc3c2)ncc1-c1nnc(-c2cccc(C(N)=O)c2)o1 [Example 148, 3-(5-(6-(Benzo[d]thiazol-6-ylamino)-4-(isopropylamino)pyridin-3-yl)-1,3,4-oxadiazol-2-yl)benzamide]
2 | 813 | CC(C)Nc1cc(Nc2ccc3ncsc3c2)ncc1-c1ccc2cn[nH]c2c1 [Example 177, N2-(Benzo[d]thiazol-6-yl)-5-(1H-indazol-6-yl)-N4-isopropylpyridine-2,4-diamine]
3 | 3.1 | CC(C)Nc1cc(Nc2ccc3ncsc3c2)ncc1-c1nc(C(=O)NCCCN2CCCC2)cs1 [Example 82, 2-(6-(Benzo[d]thiazol-6-ylamino)-4-(isopropylamino)pyridin-3-yl)-N-(3-(pyrrolidin-1-yl)propyl)thiazole-4-carboxamide]
4 | 2.7 | CC(C)Nc1cc(Nc2ccc3ncsc3c2)ncc1-c1nc(C(N)=O)co1 [Example 108, 2-(6-(Benzo[d]thiazol-6-ylamino)-4-(isopropylamino)pyridin-3-yl)oxazole-4-carboxamide]
5 | 3.3 | CC(=O)NC1CCN(C(=O)c2nnc(-c3cnc(Nc4ccc5ncsc5c4)cc3NC(C)C)s2)C1 (centres unmarked) [Example 8, N-(1-(5-(6-(benzo[d]thiazol-6-ylamino)-4-(isopropylamino)pyridin-3-yl)-1,3,4-thiadiazole-2-carbonyl)pyrrolidin-3-yl)acetamide]
6 | 3.2 | CNC(=O)c1ccc(Nc2cc(Nc3ccc4ncsc4c3)ncc2-c2nnc(C(=O)N3CC[C@@H](O)C3)s2)cc1 [Example 19, (R)-4-((2-(benzo[d]thiazol-6-ylamino)-5-(5-(3-hydroxypyrrolidine-1-carbonyl)-1,3,4-thiadiazol-2-yl)pyridin-4-yl)amino)-N-methylbenzamide]
7 | 24 | CC(C)Nc1cc(Nc2ccc3ncsc3c2)ncc1-c1nc(C(=O)NCC2CCCO2)cs1 (centres unmarked) [Example 59, 2-(6-(Benzo[d]thiazol-6-ylamino)-4-(isopropylamino)pyridin-3-yl)-N-((tetrahydrofuran-2-yl)methyl)thiazole-4-carboxamide]
8 | 3.2 | CC(C)Nc1cc(Nc2ccc3ncsc3c2)ncc1-c1nnc(C(=O)N2CCC(O)C2)s1 (single isomer, unassigned) [Example 7, (5-(6-(Benzo[d]thiazol-6-ylamino)-4-(isopropylamino)pyridin-3-yl)-1,3,4-thiadiazol-2-yl)(3-hydroxypyrrolidin-1-yl)methanone]
9 | 576 | CC(C)Nc1cc(Nc2ccc3ncsc3c2)ncc1-c1nc(C(=O)N2CCC3(CC2)C(=O)NCN3c2ccccc2)cs1 [Example 48, 8-(2-(6-(Benzo[d]thiazol-6-ylamino)-4-(isopropylamino)pyridin-3-yl)thiazole-4-carbonyl)-1-phenyl-1,3,8-triazaspiro[4.5]decan-4-one]
10 | 795 | CC(C)Nc1cc(Nc2ccc3ncsc3c2)ncc1-c1nc(C(=O)NCC2CCCCC2)cs1 [Example 56, 2-(6-(Benzo[d]thiazol-6-ylamino)-4-(isopropylamino)pyridin-3-yl)-N-(cyclohexylmethyl)thiazole-4-carboxamide]
11 | 25.3 | CC(C)Nc1cc(Nc2ccc3ncsc3c2)ncc1-c1nnc[nH]1 [Example 1, N2-(benzo[d]thiazol-6-yl)-N4-isopropyl-5-(4H-1,2,4-triazol-3-yl)pyridine-2,4-diamine]
12 | 2.7 | Cc1sc(-c2cnc(Nc3ccc4ncsc4c3)cc2NC(C)C)nc1C(=O)NCCCN1CCCCC1 [Example 25, 2-(6-(benzo[d]thiazol-6-ylamino)-4-(isopropylamino)pyridin-3-yl)-5-methyl-N-(3-(piperidin-1-yl)propyl)thiazole-4-carboxamide]
13 | 676 | CC(C)Nc1cc(Nc2ccc3ncsc3c2)ncc1-c1nnc(-c2ccc(F)c(S(=O)(=O)NC(C)(C)C)c2)o1 [Example 143, 5-(5-(6-(Benzo[d]thiazol-6-ylamino)-4-(isopropylamino)pyridin-3-yl)-1,3,4-oxadiazol-2-yl)-N-(tert-butyl)-2-fluorobenzenesulfonamide]
14 | 2.5 | CC(C)Nc1cc(Nc2ccc3nsnc3c2)ncc1-c1nnc(C(=O)N2CC[C@@H](O)C2)s1 [Example 3, (R)-(5-(6-(Benzo[c][1,2,5]thiadiazol-5-ylamino)-4-(isopropylamino)pyridin-3-yl)-1,3,4-thiadiazol-2-yl)-(3-hydroxypyrrolidin-1-yl)methanone]
15 | 22.9 | CC(C)Nc1cc(Nc2ccc(C#N)cc2)ncc1-c1nnc(NC[C@@H](F)CO)o1 [Example 115, (R)-4-((5-(5-((2-Fluoro-3-hydroxypropyl)amino)-1,3,4-oxadiazol-2-yl)-4-(isopropylamino)pyridin-2-yl)amino)benzonitrile]
16 | 23 | CC(C)Nc1cc(Nc2ccc3ncsc3c2)ncc1-c1nnc(C(=O)N2CCC(N)CC2)o1 [Example 161, (4-Aminopiperidin-1-yl)(5-(6-(benzo[d]thiazol-6-ylamino)-4-(isopropylamino)pyridin-3-yl)-1,3,4-oxadiazol-2-yl)methanone]
17 | 875 | Cc1oc(-c2cnc(Nc3ccc4ncsc4c3)cc2NC(C)C)nc1NC(=O)OC(C)(C)C [Example 106, tert-butyl 2-(6-(benzo[d]thiazol-6-ylamino)-4-(isopropylamino)pyridin-3-yl)-5-methyloxazol-4-ylcarbamate]
18 | 25.4 | CC(C)Nc1cc(Nc2ccc3ncsc3c2)ncc1-c1nnc(N2CCN(CCO)CC2)o1 [Example 129, 2-(4-(5-(6-(Benzo[d]thiazol-6-ylamino)-4-(isopropylamino)pyridin-3-yl)-1,3,4-oxadiazol-2-yl)piperazin-1-yl)ethanol]
19 | 961 | CCOC(=O)c1nc(-c2cnc(Nc3ccc4ncsc4c3)cc2NC(C)C)sc1C [Example 23, Ethyl 2-(6-(benzo[d]thiazol-6-ylamino)-4-(isopropylamino)pyridin-3-yl)-5-methylthiazole-4-carboxylate]
20 | 26.4 | CC(C)Nc1cc(Nc2ccc3ncsc3c2)ncc1-c1nnc(NC2CNC2)o1 [Example 128, 5-(5-(Azetidin-3-ylamino)-1,3,4-oxadiazol-2-yl)-N2-(benzo[d]thiazol-6-yl)-N4-isopropylpyridine-2,4-diamine]
21 | 26 | CC(C)Nc1cc(Nc2ccc3ncsc3c2)ncc1-c1nc(C(=O)NC[C@H](O)c2ccccc2)cs1 [Example 81, (R)-2-(6-(Benzo[d]thiazol-6-ylamino)-4-(isopropylamino)pyridin-3-yl)-N-(2-hydroxy-2-phenylethyl)thiazole-4-carboxamide]
22 | 616 | COc1cccc(-c2cnc(Nc3ccc4ncsc4c3)cc2NC(C)C)n1 [Example 176, N6′-(Benzo[d]thiazol-6-yl)-N4′-isopropyl-6-methoxy-[2,3′-bipyridine]-4′,6′-diamine]
23 | 22.1 | CC(C)Nc1cc(Nc2ccc3ncsc3c2)ncc1-c1nnc(N2CCN(CCN3CCOCC3)CC2)o1 [Example 130, N2-(benzo[d]thiazol-6-yl)-N4-isopropyl-5-(5-(4-(2-morpholinoethyl)piperazin-1-yl)-1,3,4-oxadiazol-2-yl)pyridine-2,4-diamine]
24 | 24.5 | NC(=O)c1nnc(-c2cnc(Nc3ccc4ncsc4c3)cc2N[C@H](CO)Cc2ccccc2)o1 [Example 152, (S)-5-(6-(Benzo[d]thiazol-6-ylamino)-4-((1-hydroxy-3-phenylpropan-2-yl)amino)pyridin-3-yl)-1,3,4-oxadiazole-2-carboxamide]
25 | 2.8 | CC(C)Nc1cc(Nc2ccc3ncsc3c2)ncc1-c1nnc(C(=O)N2CCC(O)C2)s1 (single isomer, unassigned) [Example 6, (5-(6-(Benzo[d]thiazol-6-ylamino)-4-(isopropylamino)pyridin-3-yl)-1,3,4-thiadiazol-2-yl)(3-hydroxypyrrolidin-1-yl)methanone]
26 | 764 | CC(C)Nc1cc(Nc2ccc3ncsc3c2)ncc1-c1nc(C(=O)N2CCN(c3ccc(F)cc3F)CC2)cs1 [Example 31, (2-(6-(Benzo[d]thiazol-6-ylamino)-4-(isopropylamino)pyridin-3-yl)thiazol-4-yl)(4-(2,4-difluorophenyl)piperazin-1-yl)methanone]

Reference: US8987311B2, “Triazolyl-substituted pyridyl compounds useful as kinase inhibitors” (Bristol-Myers Squibb Company, priority 2012, dated 2015)
